# Literature values, collected in paper PMC13167888 (Cancer Chemotherapy and Pharmacology, 2026).
# Legend:
# [1] = bosutinib
# BCRP = target: T1, BCRP (Homo sapiens, UniProt Q9UNQ0)
# T1 sequence (Q9UNQ0 1-655): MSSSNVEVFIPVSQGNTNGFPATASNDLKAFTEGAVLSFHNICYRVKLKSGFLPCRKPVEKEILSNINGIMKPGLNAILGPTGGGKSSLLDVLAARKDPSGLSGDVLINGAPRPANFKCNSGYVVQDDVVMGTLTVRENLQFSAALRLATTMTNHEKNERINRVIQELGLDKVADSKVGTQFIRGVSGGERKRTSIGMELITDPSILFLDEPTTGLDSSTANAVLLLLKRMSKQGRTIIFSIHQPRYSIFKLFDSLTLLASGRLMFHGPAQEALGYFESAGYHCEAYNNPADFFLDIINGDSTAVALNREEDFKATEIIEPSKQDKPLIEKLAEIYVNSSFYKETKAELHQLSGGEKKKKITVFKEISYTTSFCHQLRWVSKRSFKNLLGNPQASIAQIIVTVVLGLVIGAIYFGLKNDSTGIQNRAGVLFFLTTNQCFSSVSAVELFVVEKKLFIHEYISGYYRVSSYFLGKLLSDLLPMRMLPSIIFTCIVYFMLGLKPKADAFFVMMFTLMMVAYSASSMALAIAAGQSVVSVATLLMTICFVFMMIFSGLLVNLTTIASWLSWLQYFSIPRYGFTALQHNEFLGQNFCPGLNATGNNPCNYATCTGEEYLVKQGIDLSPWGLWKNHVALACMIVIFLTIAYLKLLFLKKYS
Plasma protein binding [1],IC50 (BCRP),SMILES
94% [37],–,COc1cc(Nc2c(C#N)cnc3cc(OCCCN4CCN(C)CC4)c(OC)cc23)c(Cl)cc1Cl [bosutinib]
–,3.2 µM,CC(C)/N=c1\cc2n(-c3ccc(Cl)cc3)c3ccccc3nc-2cc1Nc1ccc(Cl)cc1 [clofazimine]
